In patent US20220110325A1, “PESTICIDALLY ACTIVE AZOLE-AMIDE COMPOUNDS” (SYNGENTA CROP PROTECTION AG, priority 2019, published 2022):

Columns and labels:
Type in all cases: in vivo
[1] = tested on: Plutella xylostella (Diamond Back Moth); experiment: Plutella xylostella (diamond back moth), artificial diet, eggs, 24-well; details: 192 h, application rate of 200 ppm, eggs on artificial diet, 8 days after infestation, read-out: control in at least one of the two categories (mortality or growth inhibition)
Procedure: Example B5: Plutella xylostella (Diamond Back Moth)
24-well microtiter plates with artificial diet were treated with aqueous test solutions prepared from 10,000 ppm DMSO stock solutions by pipetting. After drying, Plutella eggs were pipetted through a plastic stencil onto a gel blotting paper and the plate was closed with it. The samples were assessed for mortality and growth inhibition in comparison to untreated samples 8 days after infestation.

[2] = tested on: Chilo suppressalis (Striped Rice Stemborer); experiment: Chilo suppressalis (striped rice stemborer), artificial diet; details: 144 h, application rate of 200 ppm, L2 larvae, 6 days after infestation, read-out: control in at least one of the three categories (mortality, anti-feeding or growth inhibition)
Procedure: Example 14: Chilo suppressalis (Striped Rice Stemborer)
24-well microtiter plates with artificial diet were treated with aqueous test solutions prepared from 10,000 ppm DMSO stock solutions by pipetting. After drying, the plates were infested with L2 larvae (6-8 per well). The samples were assessed for mortality, anti-feeding effect, and growth inhibition in comparison to untreated samples 6 days after infestation. Control of Chilo suppressalis by a test sample is given when at least one of the categories mortality, anti-feedant effect, and growth inhibition is higher than the untreated sample.

[3] = tested on: Euschistus heros (Neotropical Brown Stink Bug); experiment: Euschistus heros (neotropical brown stink bug), sprayed soybean leaves; details: 120 h, application rate of 200 ppm, N2 nymphs, 5 days after infestation, read-out: control in at least one of the two categories (mortality or growth inhibition)
Procedure: Example B3: Euschistus heros(Neotropical Brown Stink Bug)
Soybean leaves on agar in 24-well microtiter plates were sprayed with aqueous test solutions prepared from 10,000 ppm DMSO stock solutions. After drying the leaves were infested with N2 nymphs. The samples were assessed for mortality and growth inhibition in comparison to untreated samples 5 days after infestation.

[4] = tested on: Diabrotica balteata (corn root worm); experiment: Diabrotica balteata (corn root worm), sprayed maize sprouts; details: 96 h, application rate of 200 ppm, L2 larvae, 4 days after infestation, read-out: control in at least one of the two categories (mortality or growth inhibition)
Procedure: Example B2: Diabrotica Balteata (Corn Root Worm)
Maize sprouts placed onto an agar layer in 24-well microtiter plates were treated with aqueous test solutions prepared from 10,000 ppm DMSO stock solutions by spraying. After drying, the plates were infested with L2 larvae (6 to 10 per well). The samples were assessed for mortality and growth inhibition in comparison to untreated samples 4 days after infestation.

[5] = tested on: Spodoptera littoralis (Egyptian Cotton Leaf Worm); experiment: Spodoptera littoralis (Egyptian cotton leaf worm), sprayed cotton leaf discs; details: foliar, 72 h, application rate of 200 ppm, L1 larvae, 3 days after infestation, read-out: control in at least one of the three categories (mortality, anti-feeding, or growth inhibition)
Procedure: Example B10: Spodoptera littoralis (Egyptian Cotton Leaf Worm)
Cotton leaf discs were placed onto agar in 24-well microtiter plates and sprayed with aqueous test solutions prepared from 10,000 ppm DMSO stock solutions. After drying the leaf discs were infested with five L1 larvae. The samples were assessed for mortality, anti-feeding effect, and growth inhibition in comparison to untreated samples 3 days after infestation. Control of Spodoptera littoralis by a test sample is given when at least one of the categories mortality, anti-feedant effect, and growth inhibition is higher than the untreated sample.

[6] = tested on: Myzus persicae (Green Peach Aphid); experiment: Myzus persicae (green peach aphid), intrinsic activity; details: 120 h, test rate of 12 ppm, sucrose solution through Parafilm, 5 days after infestation
From the text: Example B8: Myzus persicae (Green Peach Aphid). Intrinsic Activity
Test compounds prepared from 10,000 ppm DMSO stock solutions were applied by pipette into 24-well microtiter plates and mixed with sucrose solution. The plates were closed with a stretched Parafilm. A plastic stencil with 24 holes was placed onto the plate and infested pea seedlings were placed directly on the Parafilm. The infested plate was closed with a gel blotting paper and another plastic stencil and then turned upside down. The samples were assessed for mortality 5 days after infestation.

[7] = tested on: Plutella xylostella (Diamondback Moth); experiment: Plutella xylostella (diamondback moth), 96-well artificial diet, eggs; details: 216 h, application rate of 500 ppm, eggs/L1 larvae, 9 days after infestation
Procedure: Example B13: Plutella xylostella (Diamondback Moth)
96-well microtiter plates containing artificial diet were treated with aqueous test solutions, prepared from 10,000 ppm DMSO stock solutions, by a liquid handling robot. After drying, eggs (˜30 per well) were infested onto a netted lid which was suspended above the diet. The eggs hatch and L1 larvae move down to the diet. The samples were assessed for mortality 9 days after infestation.

[8] = tested on: Tetranychus urticae (Two-Spotted Spider Mite); experiment: Tetranychus urticae (two-spotted spider mite), feeding/contact activity; details: 192 h
Procedure: Example B11: Tetranychus urticae (Two-Spotted Spider Mite):Feeding/Contact Activity
Bean leaf discs on agar in 24-well microtiter plates were sprayed with aqueous test solutions prepared from 10,000 ppm DMSO stock solutions. After drying the leaf discs were infested with a mite population of mixed ages. The samples were assessed for mortality on mixed population (mobile stages) 8 days after infestation.

CC(NC(=O)c1cc(C(F)(F)F)cc(C(F)(F)F)c1)c1ncnn1-c1ncc(OC(F)F)cn1 (stereo not drawn) [Compound P3, N-[1-[2-[5-(difluoromethoxy)pyrimidin-2-yl]-1,2,4-triazol-3-yl]ethyl]-3,5-bis(trifluoromethyl) benzamide]
≥ 80%: percent control (mortality or growth inhibition) at 200 ppm [1] | percent control (mortality, anti-feedant effect or growth inhibition) at 200 ppm [2] | percent control (mortality or growth inhibition) at 200 ppm [3] | percent control (mortality or growth inhibition) at 200 ppm [4] | percent control (mortality, anti-feeding or growth inhibition) at 200 ppm [5] | mortality at 12 ppm [6]

CC(NC(=O)c1cc(C(F)(F)F)cc(C(F)(F)F)c1)c1ncnn1-c1ncc(OCC(F)(F)F)cn1 (stereo not drawn) [Compound P4, N-[1-[2-[5-(2,2,2-trifluoroethoxy)pyrimidin-2-yl]-1,2,4-triazol-3-yl]ethyl]-3,5-bis(trifluoromethyl) benzamide]
≥ 80%: percent control (mortality or growth inhibition) at 200 ppm [1] | percent control (mortality, anti-feedant effect or growth inhibition) at 200 ppm [2] | percent control (mortality or growth inhibition) at 200 ppm [4] | percent control (mortality, anti-feeding or growth inhibition) at 200 ppm [5]

CC(NC(=O)c1cc(C(F)(F)F)cc(C(F)(F)F)c1)c1ncnn1-c1ncc(OCC(F)F)cn1 (stereo not drawn) [Compound P5, N-[1-[2-[5-(2,2-difluoroethoxy)pyrimidin-2-yl]-1,2,4-triazol-3-yl]ethyl]-3,5-bis(trifluoromethyl) benzamide]
≥ 80%: percent control (mortality or growth inhibition) at 200 ppm [1] | percent control (mortality, anti-feedant effect or growth inhibition) at 200 ppm [2] | percent control (mortality or growth inhibition) at 200 ppm [3] | percent control (mortality or growth inhibition) at 200 ppm [4] | percent control (mortality, anti-feeding or growth inhibition) at 200 ppm [5]

CC(NC(=O)c1cc(C(F)(F)F)cc(C(F)(F)F)c1)c1ncnn1-c1ccc(OC(F)(F)F)cn1 (stereo not drawn) [Compound P6, N-[1-[2-[5-(trifluoromethoxy)-2-pyridyl]-1,2,4-triazol-3-yl]ethyl]-3,5-bis(trifluoromethyl) benzamide]
≥ 80%: percent control (mortality or growth inhibition) at 200 ppm [1] | percent control (mortality, anti-feedant effect or growth inhibition) at 200 ppm [2] | percent control (mortality or growth inhibition) at 200 ppm [3] | mortality at 500 ppm [7] | percent control (mortality or growth inhibition) at 200 ppm [4] | percent control (mortality, anti-feeding or growth inhibition) at 200 ppm [5] | mortality at 200 ppm [8]

C[C@H](NC(=O)c1cc(C(F)(F)F)cc(C(F)(F)F)c1)c1ncnn1-c1ncc(OC(F)(F)F)cn1 [Compound P7, N-[(1S)-1-[2-[5-(trifluoromethoxy)pyrimidin-2-yl]-1,2,4-triazol-3-yl]ethyl]-3,5-bis(trifluoromethyl) benzamide]
≥ 80%: percent control (mortality or growth inhibition) at 200 ppm [1] | percent control (mortality or growth inhibition) at 200 ppm [4] | percent control (mortality, anti-feeding or growth inhibition) at 200 ppm [5]

CC(NC(=O)c1cc(C(F)(F)F)cc(C(F)(F)F)c1)c1ncnn1-c1ccc(OCC(F)(F)F)cn1 (stereo not drawn) [Compound P8, N-[1-[2-[5-(2,2,2-trifluoroethoxy)-2-pyridyl]-1,2,4-triazol-3-yl]ethyl]-3,5-bis(trifluoromethyl)benzamide]
≥ 80%: percent control (mortality or growth inhibition) at 200 ppm [1] | percent control (mortality, anti-feedant effect or growth inhibition) at 200 ppm [2] | percent control (mortality or growth inhibition) at 200 ppm [4] | percent control (mortality, anti-feeding or growth inhibition) at 200 ppm [5]

CC(NC(=O)c1cc(C(F)(F)F)cc(C(F)(F)F)c1)c1ncnn1-c1ccc(OCC(F)F)cn1 (stereo not drawn) [Compound P9, N-[1-[2-[5-(2,2-difluoroethoxy)-2-pyridyl]-1,2,4-triazol-3-yl]ethyl]-3,5-bis(trifluoromethyl) benzamide]
≥ 80%: percent control (mortality or growth inhibition) at 200 ppm [1] | percent control (mortality, anti-feedant effect or growth inhibition) at 200 ppm [2] | percent control (mortality or growth inhibition) at 200 ppm [4] | percent control (mortality, anti-feeding or growth inhibition) at 200 ppm [5]

CC(NC(=O)c1cc(C(F)(F)F)cc(C(F)(F)F)c1)c1ncnn1-c1ccc(O/C=C\C(F)(F)F)cn1 (stereo not drawn) [Compound P10, 3,5-bis(trifluoromethyl)-N-[1-[2-[5-[(Z)-3,3,3-trifluoroprop-1-enoxy]-2-pyridyl]-1,2,4-triazol-3-yl]ethyl]benzamide]
≥ 80%: percent control (mortality or growth inhibition) at 200 ppm [1] | percent control (mortality, anti-feedant effect or growth inhibition) at 200 ppm [2] | mortality at 500 ppm [7]

CC(NC(=O)c1cc(C(F)(F)F)cc(C(F)(F)F)c1)c1ncnn1-c1ccc(OC(F)F)cn1 (stereo not drawn) [Compound P11, N-[1-[2-[5-(difluoromethoxy)-2-pyridyl]-1,2,4-triazol-3-yl]ethyl]-3,5-bis(trifluoromethyl) benzamide]
≥ 80%: percent control (mortality or growth inhibition) at 200 ppm [1] | percent control (mortality, anti-feedant effect or growth inhibition) at 200 ppm [2] | mortality at 500 ppm [7] | percent control (mortality or growth inhibition) at 200 ppm [4] | percent control (mortality, anti-feeding or growth inhibition) at 200 ppm [5]

CC(NC(=O)c1cc(OCC(F)F)cc(C(F)(F)F)c1)c1ncnn1-c1ncc(OC(F)F)cn1 (stereo not drawn) [Compound P12, 3-(2,2-difluoroethoxy)-N-[1-[2-[5-(difluoromethoxy)pyrimidin-2-yl]-1,2,4-triazol-3-yl]ethyl]-5-(trifluoromethyl) benzamide]
≥ 80%: percent control (mortality or growth inhibition) at 200 ppm [1] | percent control (mortality, anti-feedant effect or growth inhibition) at 200 ppm [2] | percent control (mortality, anti-feeding or growth inhibition) at 200 ppm [5] | mortality at 12 ppm [6]
